Measurements reported in patent US20120141467A1, “Ascorbic acid to treat chronic obstructive lung diseases and non-Hodgkin's lymphoma” (priority 2010, published 2012).

Test system: upper respiratory mucosa
Assay: Safety tests of topical ascorbate (spray, lozenge) on upper respiratory mucosa
Conditions: Three ml oral/nasal spray in sterile water three times daily for six months
From the text: Initiation of the test sought first to assure that the designed aerosol would be safely tolerated by the IC's respiratory mucosa.

**Q.** Which “Adverse effects of spray on upper respiratory mucosa” value does the source give for `O=C1O[C@H]([C@@H](O)CO)C(O)=C1O` [ascorbate] here?
**A.** no adverse effects
